Source: patent US10350315B2, “Quinoline-3-carboxamide compounds and their use in diagnosis” (Westfaelische Wihelms-Universitaet Muenster, priority 2014, dated 2019)

Columns and labels:
S100A9 [1] = molecular target: T1, S100A9 (Mus musculus, UniProt P31725); experiment: Atherosclerosis mouse model (HypoE, HFC diet), FRI of the explanted aorta; assay type: in vivo, SR-BI−/−/apoER61h/h mice (HypoE); details: 10 days HFC diet, 2 h p.i.
T1 construct: from tissue; host or cells: living mice (inflamed ear, joints) and explanted mouse heart, aorta and lungs
T1 sequence (P31725 2-113 limits assumed): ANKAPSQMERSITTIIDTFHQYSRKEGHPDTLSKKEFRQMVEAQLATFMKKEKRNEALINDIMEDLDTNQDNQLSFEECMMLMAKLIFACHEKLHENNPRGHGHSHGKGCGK
Method: FIG. 8: Accumulation of Cy5.5-CES271 in a mouse model of atherosclerosis in a HypoE mouse, 10 days on HFC diet.
Atherosclerosis is an inflammatory disease of the vessel wall. SR-BI^−/−/apoE^R61 h/h-mice (HypoE) are known to develop atherosclerotic lesions especially when set on a high fat and high choleresterol diet (HFC). Typical predeliction site is the aortic arch. 12-14 week old mice were set on HFC diet for 10 days. At day 10 of HFC diet Cy5.5-CES271 was injected i.v., the mice were sacrificed two hours p.i., the aortic arches were explanted, and measured ex-vivo by FRI.
The hearts and aorta were fixed overnight in 4% paraformaldehyde and embedded in paraffin. Sections measuring 4 μm in thickness were analyzed. For immunohistochemistry, paraffin skin sections (4 μm) were dewaxed, blocked with 10% fetal bovine serum, and incubated with rabbit anti-S100A9 or MAC-3 antibodies for 1 h at room temperature followed by a goat-anti-rabbit biotinylated antibody and 3,3′ diaminobenzidine (DAB).

S100A9 [2] = molecular target: T1, S100A9; experiment: Irritant contact dermatitis (ICD) mouse model, fluorescence reflectance imaging (FRI); assay type: in vivo, mice; details: FRI 3 h after tracer application
Text: FIG. 6: Accumulation of Cy5.5-CES271 in a mouse model of contact dermatitis (ICD). (A) FRI images showing accumulation of a quinoline-3-carboxamide compound covalently linked to a label (Cy5.5-CES271) in a mouse model of contact dermatitis of the left ear in WT (left) and S100A9 deficient (right) mice. (B) FRI images and S100A9 staining showing accumulation of a quinoline-3-carboxamide compound covalently linked to a label (Cy5.5-CES271) in a mouse model of contact dermatitis.
FIG. 21: FRI images of Cy5.5-CES271 and Cy7-CES271 in a mouse model of contact dermatitis (ICD). (A) Representative Fluorescence Reflectance images of a Cy7-CES271 and Cy5.5-aS100A9 coinjected animal.
In vivo fluorescence reflectance imaging was performed with an IVIS Spectrum small-animal imaging system (Xenogen). Images were acquired and analyzed using Living Image 4.X software (Xenogen). […] Fluorescence emission was measured by Fluorescence emission radiance per incident excitation irradiance (p/sec/cm2/sr/μW/cm2).
ICD was induced by the application of 20 μl 1% croton oil in olive oil-acetone (1:4) to the ventral surface of the left ear of mice for 24 h (n=5 per group), whereas the right ear served as a control. […] In the Cy7 channel the quantum yield is much lower compared to the Cy5.5 channel, which means that the recorded signal with Cy5.5-CES271 is higher than compared to […] (right image; FIG. 21). […]

3-ethyl-2((1E,3E,5E)-5-(3-(1-(5-ethyl-4-hydroxy-1-methyl-2-oxo-1,2-dihydroquinolin-3-yl)-1,15-dioxo-2-phenyl-5,8,11-trioxa-2,14-diazanonadecan-19-yl)-1,1-dimethyl-6,8-disulfonato-1H-benzo[e]indol-2(3H)-ylidene)penta-1,3-dien-1-yl)-1,1-dimethyl-1H-benzo[e]indol-3-ium-6,8-disulfonate [Cy5.5-CES271]
Accumulation in plaque lesions of the explanted aorta (S100A9 [1]): accumulation
Accumulation in the inflamed ear (S100A9 [2]; S100A9−/− deficient mice): not observed
Accumulation in the inflamed ear (S100A9 [2]; WT mice, croton oil on left ear): significant accumulation
